Laboratory results: patent EP0186275A2, “2-Substituted amino-4(1H)-pyrimidone derivatives, their production, and medical compositions containing them” (YAMANOUCHI PHARMACEUTICAL CO. LTD., priority 1984, dated 1986)
Structures can show the parent of a compound that is named as a salt.

Assays:
Male Wistar rats [1] = assay: Gastric cytoprotection (ethanol ulcer rat); format: in vivo
Method: 3) Gastric cytoprotection: Male Wistar rats (about 200 […]) were starved for 24 hours and deprived of water for 18 hours prior to the experiment. Absolute ethanol (1 ml/rat) was given orally to rats one hour after p.o. administration of the test compounds. One hour later, animals were sacrificed for the measurement of gastric lesions (mm^2).

histamine H2-receptor = biological target: T1, histamine H2-receptor (Cavia porcellus, UniProt P47747); assay: H2-Blocking activity (isolated guinea pig atrium, chronotropic response to histamine); format: cell-based; settings: isolated guinea pig atrium; test drugs 30 min. before 5 x 10^-6M histamine; dose producing 50% blockade of chronotropic response; read-out: 1)H2-bloc-kade guinea pig atrium ED50
T1 construct: The atrium isolated from quinea-pigs was mounted in an organ bath; from tissue; host or cells: isolated guinea pig atrium
Method: In addition, the experiments were performed using a known compound, TZU-0460, i. e., N-[3-(3-(1-piperi- dinylmethyl)phenoxy]propyl]acetoxyacetamide hydrochloride shown by the following formula [drawing 9] HC1 disclosed in European Patent No. 24,510. • 1. Experimental procedure • 1) H2-Blocking activity:
The atrium isolated from quinea-pigs was mounted in an organ bath containing Krebs-Henseleit solution gassed with 95% 02 and 5% C02 at 37°C. The spontaneous movement of the atrium was recorded through a strain gauge (Nihon Koden, SB-1T) on a polygraph (Nihon Koden, RM-6200). The tissue was exposed to test drugs 30 min. before treatment with 5 x 10-^6M histamine. The dose of test drugs producing 50%blockade of chronotropic response to histamine was obtained from each preparation.

Male Wistar rats [2] = assay: Gastric secretion inhibiting activity (pylorus-ligated rat, 4hr. shay rat); format: in vivo
Method: 2) Gastric secretion inhibiting activity: Male Wistar rats (about 200 g) were fasted but allowed free access to water for 24 hours prior to the experiment. The pylorus was ligated after abdominal midline incision under ether anesthesia. Four hours later, the animals were killed for the collection of gastric juice. The test compounds were given p.o. 1 hour before the pylorus ligation. Gastric juice (0.5 ml) was titrated against 0.05 N NaOH up to pH 7.0 to determine acid concentration using an automatic titrator (Hiranuma Sangyo Co., Comtite 7). The total acid output was calculated as the product of gastric volume by acid concentration.

Acute toxicity LD50 iv = settings: in vivo, species not given
[3] = po, 1 h, p.o., absolute ethanol (1 ml/rat) orally one hour after test compound; gastric lesions measured one hour later; read-out: 3)Cytopro-tection ethanol ulcer rat ED50(mg/kg p.o.)
[4] = Rattus norvegicus, po, 4 h; p.o. 1 hour before pylorus ligation; gastric juice collected four hours later; total acid output; read-out: 2)Anti-secretion 4hr. shay rat ED50 (mg/kg p.o.)

T1 sequence (P47747 whole entry): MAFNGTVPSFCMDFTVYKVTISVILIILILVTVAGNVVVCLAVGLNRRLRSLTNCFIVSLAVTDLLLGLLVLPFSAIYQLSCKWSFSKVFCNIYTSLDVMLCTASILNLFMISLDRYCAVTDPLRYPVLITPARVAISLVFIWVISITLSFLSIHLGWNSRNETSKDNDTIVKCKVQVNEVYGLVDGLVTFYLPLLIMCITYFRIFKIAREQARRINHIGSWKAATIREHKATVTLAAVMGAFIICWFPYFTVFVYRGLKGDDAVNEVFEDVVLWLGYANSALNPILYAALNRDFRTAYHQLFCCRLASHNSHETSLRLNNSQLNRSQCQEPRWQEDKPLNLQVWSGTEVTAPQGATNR

Structure (SMILES) | ED50 (Male Wistar rats [1]; [3]) | IC50 (histamine H2-receptor) | ED50 (Male Wistar rats [2]; [4]) | LD50 (Acute toxicity LD50 iv) | ED50 (Male Wistar rats [1]; Rattus norvegicus, po, 1 h, read-out: 3)Cytopro-tection ethanol ulcer rat ED50(mg/kg p.o.)) | ED50 (Male Wistar rats [2]; Rattus norvegicus, po, 4 h, read-out: 2)Anti-secretion 4hr. shay rat ED50 (mg/kg p.o.))
CCCCCCCc1c(C)[nH]c(NCCCOc2cccc(CN3CCCCC3)c2)nc1=O [Example 1, 5-heptyl-6-methyl-2-[3-[m-(piperidinomethyl)phenoxy]-propylamino]-4(lH)-pyrimidone di-hydrochloride] | 6 mg/kg | > 1000 nM | 2.6 mg/kg |  |  | 
CCCCc1c(C)[nH]c(NCCCOc2cccc(CN3CCCCC3)c2)nc1=O [Example 4, 5-butyl-6-methyl-2-L3-[m-(piperidinomethyl)phenoxy]propylamino]-4(1H)-pyrimidone dihydrochloride] | 5.8 mg/kg | 420 nM | 6.4 mg/kg | 61.1 mg/kg |  | 
CCCCCc1c(CC)[nH]c(NCCCOc2cccc(CN3CCCCC3)c2)nc1=O [Example 5, 6-Ethyl-5-pentyl-2-f3-[m-(piperidinomethyl)phenoxy]-propylamino]-4(lH)-pyrimidone dihydrochloride-dihydrate] | 9.6 mg/kg | 8900 nM | 19 mg/kg |  |  | 
CCCc1c(C)[nH]c(NCCCOc2cccc(CN3CCCCC3)c2)nc1=O [Example 7, 6-Methyl-2-[3-[m-(piperidinomethyl)phenoxy]propylamino]-5-propyl-4(lH)-pyrimidone] | 6.6 mg/kg | 510 nM | 6.1 mg/kg |  |  | 
C#CCc1c(C)[nH]c(NCCCOc2cccc(CN3CCCCC3)c2)nc1=O [Example 9] | 23.3 mg/kg | 210 nM | 3.1 mg/kg |  |  | 
CC=CCc1c(C)[nH]c(NCCCOc2cccc(CN3CCCC(C)C3)c2)nc1=O (centres unmarked) [Example 12, 5-(2-Butenyl)-6-methyl-2-[3-[m-(3-methylpiperidino-methyl)phenoxy]propylamino]-4(1H)-pyrimidone] | 6.7 mg/kg | 610 nM | 16.4 mg/kg | 42.5 mg/kg |  | 
CC=CCc1c(C)[nH]c(NCCCOc2cccc(CN3CCCC3)c2)nc1=O [Example 14, 5-(2-Butenyl)-6-methyl-2-[3-[m-(pyrrolidinylmethyl)-phenoxy]propylamino]-4(1H)-pyrimidone] | 41.4 mg/kg | 820 nM | 9.9 mg/kg |  |  | 
CCSCCc1c(C)[nH]c(NCCCOc2cccc(CN3CCCCC3)c2)nc1=O [Example 15, 5-(2-Ethylthioethyl)-6-methyl-2-[3-[m-(piperidinomethyl)phenoxy]propylamino]-4(lH)-pyrimidone] | 25.4 mg/kg | 400 nM | 10.9 mg/kg |  |  | 
CC(C)=CCc1c(C)[nH]c(NCCCOc2cccc(CN3CCCCC3)c2)nc1=O [Example 26, 6-methyl-5-(3-methyl-2-butenyl)-2-[3-[m-(piperidinomethyl)phenoxy]propylamino]-4(1H)-pyrimidone] | 20.5 mg/kg | 360 nM | 5.2 mg/kg |  |  | 
C=CCc1c(C)[nH]c(NCCCOc2cccc(CN3CCCC(C)C3)c2)nc1=O (centres unmarked) [Example 30, 5-(2-Propenyl)-6-me thyl-2-[3-[m-(3-methylpiperidi-nomethyl)phenoxy]propylamino]-4(lH)-pyrimidone] | 17 mg/kg | 170 nM | 18 mg/kg |  |  | 
C=C(C)Cc1c(C)[nH]c(NCCCOc2cccc(CN3CCCC(C)C3)c2)nc1=O (centres unmarked) [Example 31, 6-Methyl-2-[3-[m-(3-methylpiperidinomethyl)pheno- : xy]propylamino]-5-(2-methyl-2-propenyl)-4(lH)-pyrimidone] | 13.6 mg/kg | 290 nM | 30.1 mg/kg |  |  | 
CC(=O)OCC(=O)NCCCOc1cccc(CN2CCCCC2)c1 [TZU-0460, N-[3-(3-(1-piperi-dinylmethyl)phenoxy]propyl]acetoxyacetamide hydrochloride, reference compound] |  | 370 nM |  |  | 46.4 mg/kg | 35.1 mg/kg
